Measurements reported in the OligoGym collection.
Values joined by “and” are separate entries in the source; they are usually repeats but may differ in a detail not shown here. Equal entries are not always repeated. After the bases stand the sugars from the 5' end (letter, count) and the backbone: PS all phosphorothioate, else s phosphorothioate and o phosphodiester by linkage. Methylation of C is not given here. e = 2'-O-(2-methoxyethyl) (MOE); k = constrained ethyl (cEt); d = 2'-deoxy (DNA)

target: IRF4; settings: ASO, MM.1R, 0.0625 µM

Sequence	target mRNA inhibition
GGAACTCATAGGTGTA (sugars k3 d10 k3, PS)	11% and 32%
GGCAAATTAATGCTTC (sugars k3 d10 k3, PS)	-5% and 17%

same assay, conditions: ASO, MM.1R, 0.074 µM

Sequence	target mRNA inhibition [%]
GGCAAATTAATGCTTC (sugars k3 d10 k3, PS)	-9

same assay, conditions: ASO, MM.1R, 0.222 µM

Sequence	target mRNA inhibition [%]
GGCAAATTAATGCTTC (sugars k3 d10 k3, PS)	-33

same assay, conditions: ASO, MM.1R, 0.25 µM

Sequence	target mRNA inhibition
GGAACTCATAGGTGTA (sugars k3 d10 k3, PS)	26% and 42%
GGCAAATTAATGCTTC (sugars k3 d10 k3, PS)	-11% and 5%

same assay, conditions: ASO, MM.1R, 0.666 µM

Sequence	target mRNA inhibition [%]
GGCAAATTAATGCTTC (sugars k3 d10 k3, PS)	7

same assay, conditions: ASO, MM.1R, 1 µM

Sequence	target mRNA inhibition
GCGAGTTGGCACAATT (sugars k3 d10 k3, PS)	27% and 37%
GCTAACTTACAGGACT (sugars k3 d10 k3, PS)	-8%
GCTAGATTCTCCCTGC (sugars k3 d10 k3, PS)	-13%
GCTAGCAGGAGCGAGA (sugars k3 d10 k3, PS)	-5%
GGAACTCATAGGTGTA (sugars k3 d10 k3, PS)	53% and 65%
GGAAGTTTACACTGGA (sugars k2 d9 e3 k2, PS)	47%
GGAAGTTTACACTGGA (sugars kdddddddddkekeke, PS)	32%
GGAAGTTTACACTGGA (sugars kkddddddddddkeke, PS)	46%
GGAGAGGGCGACGACA (sugars k3 d10 k3, PS)	-1%
GGATAACCTGAACATG (sugars k3 d10 k3, PS)	9%
GGATTCCGCGCGCAGA (sugars k3 d10 k3, PS)	21%
GGCACATCAATGTTTT (sugars k2 d9 e3 k2, PS)	22% and 36%
GGCACATCAATGTTTT (sugars kddddddddddkekek, PS)	28% and 25%
GGCACATCAATGTTTT (sugars kkddddddddddkeke, PS)	9%
GGCCACCGCACGCAAG (sugars k3 d10 k3, PS)	-24%
GGCCTGAGTTACCGCA (sugars k3 d10 k3, PS)	8%
GGCGACTGCTGAAAAC (sugars k3 d10 k3, PS)	-10%
GGCGCGGACGCACGGA (sugars k3 d10 k3, PS)	10%
GGCTCCGCTCAACCAG (sugars k3 d10 k3, PS)	9%
GGGATTATATACTGGT (sugars kkdddddddddkekek, PS)	40%
GGGTTAAAGGAGTGCA (sugars k3 d10 k3, PS)	0%
GGTATTTATAACCGGT (sugars k3 d10 k3, PS)	10%
GGTATTTTTCCGTTCC (sugars k3 d10 k3, PS)	30%
GGTTGGCTGGTCTTTG (sugars kddddddddddkekek, PS)	47%
GGTTGGCTGGTCTTTG (sugars kdddddddddkekeke, PS)	26%
GGTTGGCTGGTCTTTG (sugars kkdddddddddkdkdk, PS)	64%
GTAAACGCAAGTCTGA (sugars k3 d10 k3, PS)	14%
GTAGGTAAGATCTCCA (sugars k3 d10 k3, PS)	22%
GTAGTATGAGAAACGG (sugars kddddddddddkekek, PS)	46%
GTAGTATGAGAAACGG (sugars kdddddddddkekeke, PS)	28%

same assay, conditions: ASO, MM.1R, 2 µM

Sequence	target mRNA inhibition [%]
GGCAAATTAATGCTTC (sugars k3 d10 k3, PS)	-5

same assay, conditions: ASO, MM.1R, 4 µM

Sequence	target mRNA inhibition
GGAACTCATAGGTGTA (sugars k3 d10 k3, PS)	75% and 80%

same assay, conditions: ASO, SK-MEL-28, 4 µM

Sequence	target mRNA inhibition [%]
GCGGACACGCCCGACC (sugars k3 d10 k3, PS)	15
GCGGAGCTTCCCGTTG (sugars k3 d10 k3, PS)	33
GCTACATTTCTTATGC (sugars k3 d10 k3, PS)	20
GCTCAACCAGTTCCTC (sugars k3 d10 k3, PS)	38
GCTCACAGATTAATAG (sugars k3 d10 k3, PS)	16
GCTCACTATTAAACAG (sugars k3 d10 k3, PS)	-12
GCTCACTGCTCACTAA (sugars k3 d10 k3, PS)	33
GCTCATGCCGAACTCT (sugars k3 d10 k3, PS)	19
GCTCATGGACATCTGC (sugars k3 d10 k3, PS)	39
GCTCCTGAGACAGACT (sugars k3 d10 k3, PS)	56
GCTGCTCATTTCACTG (sugars k3 d10 k3, PS)	41
GCTGTGTGTCAAAGAG (sugars k4 d8 k4, PS)	40
GCTTATCAATGCCAAG (sugars k3 d10 k3, PS)	40
GCTTCTTCAATTTACA (sugars k3 d10 k3, PS)	45
GCTTTTTCAAACACTA (sugars k3 d10 k3, PS)	68
GGAAACGAGAACGCAC (sugars k3 d10 k3, PS)	30
GGAATCTTGGCAGGGA (sugars k3 d10 k3, PS)	48
GGACATATTTGCTTTG (sugars k3 d10 k3, PS)	32
GGAGAGGCTGAGATAA (sugars k3 d10 k3, PS)	29
